What is called EC50 is the concentration giving half of the maximal effect. Low values mean higher potency in that assay, high ones lower potency in that assay.

Structures are written as SMILES.

Assay [1] concerns Ob/ob mice. Description: Effect of a SERCA agonist on the level of blood glucose. It is filed as in vivo. Particulars: Mus musculus, ip, 96 h, 50 mg/kg i.p. once a day for 5 days, fasting glucose 4 days after administration vs baseline, read-out: Glucose level reduction. How it is done: Ob/ob mice (10 weeks old, n=7) were intraperitoneally (i.p.) injected with 100 μL of a solution containing 0 (vehicle) or 50 mg/kg of a test compound once a day for a total of 5 days. Fasting glucose was measured at baseline and 4 days after the administration of the test compound. Glucose levels were measured in blood samples drawn from the tail vein using a handheld glucose sensor. Compound effects on blood glucose are shown in Table 5 where A represents a 10-20% reduction in blood glucose, B represents a 21-30% reduction in blood glucose, and C represents a greater than 30% reduction in blood glucose levels.

Assay [2] relates to CSM14.1 neuronal cells. Briefly: Cell survival assay (thapsigargin-treated CSM14.1 neuronal cells, CellTiter-Glo). It is filed as cell-based. To be noted: compound 2 hrs before about 15 μM thapsigargin, overnight, CellTiter-Glo luminescence. How it is done: CSM14.1 neuronal cells were maintained in Complete Medium at 32 ° C.; wherein the Complete Medium contained Dulbecco's modified eagle medium (DMEM) with 10% fetal bovine serum (FSB), 1% L-glutamine, 100 IU/mL penicillin, and 100 μg/mL streptomycin. The cells were recovered from cultures by trypsinization and then seeded in 384 well plates (Greiner #781098) at a concentration of 1,000 cells/well in 20 μL of DMEM Assay Medium, wherein the DMEM Assay Medium contained 2% FBS, 100 IU/mL penicillin, and 100 μg/mL streptomycin. Seeding was performed using a MultiDrop Combi reagent broadcaster. The plates were incubated overnight at 32° C. A test compound was prepared by 2-fold serial dilution in 100% DMSO using a BIOMEK® 2000 liquid handler (Beckman Coulter). A dose-response curve containing 10 concentrations of the test compound was obtained. Using a BIOMEK® FX liquid handler (Beckman Coulter), 2.5 μL of the test compound was transferred from the 100% DMSO serial dilution plate to an intermediate plate containing 47.5 μL of DMEM Assay Medium containing 2% FBS, 100 IU/mL penicillin, and 100 μg/mL streptomycin and mixed. To reduce or eliminate the interference from the compound's precipitation, 6 μL of the diluted compound was immediately transferred to the assay plate to achieve a high compound concentration of 100 μM in 99% DMEM Assay Medium and 1% DMSO. After the assay plates were incubated for 2 hrs, 4 μL of 112.5 μM thapsigargin (TG) (DMSO stock diluted into Assay TC Medium) was dispensed into each testing well with a MultiDrop Combi reagent broadcaster for a final concentration of about 15 μM TG. The tissue culture media (4 μL) containing vehicle only was transferred manually to each control cell using a 16 channel electronic pipette. After the plates were incubated overnight (about 16 to 24 hrs), CELLTITER-GLO® (Promega) (16 μL) was added to all wells and luminescence was measured. High luminescence indicates cell survival. The biological results are summarized in Table 1 where A represents a cell viability EC50 less than 10 μM and B represents a value greater than or equal to 10 μM and less than 20 μM.
(In general: Cellular ATP, detected with luciferase, serves as a proxy for viable cell number.)

The subject of assay [3] is HEK293 cells; N2a cells. Description: Cell rescue assay: protection against thapsigargin (TG)-induced cell-death (AlamarBlue). It counts as cell-based, Human (HEK293); Mouse (N2a). To be noted: Homo sapiens; compound at 20 μM, 2 hrs before thapsigargin (15 μM HEK293, 1 μM N2a), 24 hrs, viability as % RFU of control; read-out: Cell Survival %. The method, then: Protection against Thapsigargin (TG)-induced Cell-death. Human embryonic kidney (HEK293) cells were grown in Dulbecco's Modified Eagle's Medium (DMEM) with 10% FBS and 1% antibiotic antimycotic solution (ABAM). Mouse neuroblastoma (N2a) cells were grown in 1:1 DMIEM:OPTI-MIEM® with 5% FBS and 1% ABAM. All cells were grown in 10% CO2 in a humidified environment of the incubator. Cells grown in 96-well plates were exposed to a test compound (20 μM) for 2 hrs before addition of thapsigargin (15 μM for HEK293 cells and 1 μM for N2a cells) to induce ER stress. After incubation in cell-culture incubator for 24 hrs, ALAMARBLUE® regent (10% v/v) was added to the wells. Fluorescence reading was taken 2 hrs after the addition of the ALAMARBLUE® regent. Cell-viability was calculated as a percentage of relative fluorescence unit (RFU) compared to control. […] The biological results are summarized in Table 2, where each compound was tested at 20 μM and where A represents a viability greater than 50%, B represents a viability greather than 10% and less than or equal to 50%, C represents a value equal to or below 10% and greater than 1%.

Assay [4] deals with T1, SERCA (Homo sapiens, UniProt P16615).
T1 construct: microsomal preparations from HEK 293 cells; endogenous in cells; host or cells: HEK 293 cells (microsomal preparation)
Briefly: Ca-ATPase assay (NADH-linked, enzyme-coupled ATPase assay). Particulars: microsomal preparations from HEK 293 cells, Vmax from Hill fit of ATPase calcium-dependence. It counts as biochemical. How it is done:
A Ca-ATPase assay was performed using microsomal preparations from HEK 293 cells at a series of calcium concentrations corresponding to the physiological range, relative to controls. The ATP hydrolysis rate was measured over a range of calcium concentrations in the presence of test compounds using an NADH-linked, enzyme-coupled ATPase assay adapted for 96-well microplates, with Vmax determined by fitting the ATPase calcium-dependence to the Hill function. Each well contained 2 μg or 7 μg of SR vesicles (optimized for skeletal or cardiac SR, respectively), 50 mM MOPS (pH 7.0), 100 mM KCl, 5 mM MgCl2, 1 mM EGTA, 0.2 mM NADH, 1 mM phosphoenol pyruvate, 5 IU pyruvate kinase, 5 IU lactate dehydrogenase, and 3.5 μg/mL A23187 (a calcium ionophore). CaCl2 was added to set free [Ca^2+] to the specific values. The assay was started upon addition of ATP at a final concentration of 5 mM, and read in a SpectraMax Plus microplate spectrophotometer. The results are summarized in Table 4, where A represents an increase in SERCA Vmax greater than 50% and B represents a value greater than 10% and less than or equal to 50%.

The subject of assay [5] is SH-SY5Y cells. Description: Cell rescue assay: protection against β-amyloid-induced cell toxicity. Particulars: Homo sapiens, 96 h, 7.5 uM compound, AB1-42 at 10 uM, 4 days, OD 490 nm, read-out: Cell Survival % (cell rescue). It is filed as cell-based. How it is done:
Protection against β-amyloid-induced cell toxicity. Chonpathompikunlert et al. Eu. J. Pharmacol. 2011, 650, 544-549. Human SH-SY5Y cells are suspended in media containing 2% FBS and 2X Gentamicin. Transfer 100 ul/well culture to 96-well plate (20,000 cells/well; passage #5) and incubate overnight. Prepare compound samples at 30 uM. Add 50 ul of the samples to the cells [[…]] and incubate 3 hours. Make stock of 40 uM AB1-42 peptide in assay media. Transfer 50 ul/well to cells/compounds in assay plate. The final assay volume is 200 ul/well, containing 2% FBS, 2× Gentamicin, 7.5 uM compound and AB1-42 at 10 uM. Incubate for 4 days then add 20 µl of Promega Substrate Cell Titer 96 Aqueous One Solution Reagent to each well. Incubate 37° C. and read OD at 490 nm. The results are summarized in Table 3, where A represents a value greater than 50% cell rescue, B represents a value greater than 10% and less than or equal to 50% cell rescue, and C represents a value greater than 1% and less than or equal to 10% cell rescue.

T1 sequence (P16615 whole entry): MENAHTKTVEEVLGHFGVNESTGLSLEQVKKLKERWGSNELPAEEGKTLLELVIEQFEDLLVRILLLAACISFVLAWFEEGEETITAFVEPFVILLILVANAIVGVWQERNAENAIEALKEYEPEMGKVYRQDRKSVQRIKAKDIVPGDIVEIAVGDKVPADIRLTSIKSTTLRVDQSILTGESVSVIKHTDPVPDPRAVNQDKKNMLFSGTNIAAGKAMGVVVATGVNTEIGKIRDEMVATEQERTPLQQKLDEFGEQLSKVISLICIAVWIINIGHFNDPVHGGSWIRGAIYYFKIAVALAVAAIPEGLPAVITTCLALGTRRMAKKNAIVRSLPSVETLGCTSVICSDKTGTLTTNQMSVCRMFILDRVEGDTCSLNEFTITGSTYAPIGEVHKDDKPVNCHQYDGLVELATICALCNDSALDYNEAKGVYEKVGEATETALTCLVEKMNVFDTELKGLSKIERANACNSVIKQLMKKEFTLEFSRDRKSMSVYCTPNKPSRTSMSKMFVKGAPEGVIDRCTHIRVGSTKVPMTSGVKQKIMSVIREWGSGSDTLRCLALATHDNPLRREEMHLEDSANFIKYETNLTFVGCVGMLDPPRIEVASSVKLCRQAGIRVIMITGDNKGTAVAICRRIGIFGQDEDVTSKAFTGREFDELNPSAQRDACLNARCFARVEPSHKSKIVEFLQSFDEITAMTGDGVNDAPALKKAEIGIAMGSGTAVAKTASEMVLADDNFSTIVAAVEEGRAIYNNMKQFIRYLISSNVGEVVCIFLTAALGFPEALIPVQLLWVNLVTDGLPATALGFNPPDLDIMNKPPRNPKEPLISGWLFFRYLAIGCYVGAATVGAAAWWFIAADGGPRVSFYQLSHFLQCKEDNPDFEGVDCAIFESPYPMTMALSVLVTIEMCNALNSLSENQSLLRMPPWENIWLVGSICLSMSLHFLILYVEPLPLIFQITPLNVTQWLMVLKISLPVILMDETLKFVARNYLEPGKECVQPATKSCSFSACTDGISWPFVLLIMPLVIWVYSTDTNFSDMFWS

`Cc1ccc2cccc(NS(=O)(=O)c3ccc(OC(C)C)cc3)c2n1` [D1, 4-Isopropoxy-N-(2-methylquinolin-8-yl)benzenesulfonamide]: the inhibition in vivo at 50 mg/kg in assay [1] was over 30%. The molecule further came in with an EC50 in assay [2] of under 10 µM. Further, in assay [3], the viability at 20 µM was over 50%. Also, in assay [4], the “SERCA Vmax Increase” value is “B (B represents a value greater than 10% and less than or equal to 50%)”. Further, in assay [5], the viability at 7.5 µM was over 50%.

In the case of `CCOc1ccc(S(=O)(=O)Nc2cccc3ccc(C)nc23)cc1` [D2, 4-Ethoxy-N-(2-methylquinolin-8-yl)benzenesulfonamide], the inhibition in vivo at 50 mg/kg in assay [1] is over 30%. In assay [2], this molecule registered an EC50 of under 10 µM. For the same molecule, the viability at 20 µM in assay [3] was 10 to 50%. In assay [4], the “SERCA Vmax Increase” value is recorded as “A (A represents an increase in SERCA Vmax greater than 50%)”. In addition, in assay [5], the viability at 7.5 µM is over 50%.

Consider `COc1c(C)cccc1S(=O)(=O)Nc1cccc2ccc(C)nc12` [D3, 2-Methoxy-3-methyl-N-(2-methylquinolin-8-yl)benzenesulfonamide], for which the inhibition in vivo at 50 mg/kg in assay [1] lay within 10 to 20%. In assay [2], this molecule registered an EC50 of 10 to 20 µM. For the same molecule, the viability at 20 µM in assay [3] is 10 to 50%. For the same molecule, the “SERCA Vmax Increase” value in assay [4] was “A (A represents an increase in SERCA Vmax greater than 50%)”. For the same molecule, the viability at 7.5 µM in assay [5] is 10 to 50%.

`Cc1ccc2cccc(NS(=O)(=O)c3cc4ccccc4s3)c2n1` [D4, N-(2-Methylquinolin-8-yl)benzo[b]thiophene-2-sulfonamide]: in assay [1], the inhibition in vivo at 50 mg/kg is over 30%. For the same molecule, in assay [2], the EC50 lay in the range of 10 to 20 µM. Moreover, the viability at 20 µM in assay [3] is over 50%. Further, the “SERCA Vmax Increase” value in assay [4] is “B (B represents a value greater than 10% and less than or equal to 50%)”. Besides, in assay [5], the viability at 7.5 µM was in the range of 10 to 50%.

For `Cc1ccc2cccc(NS(=O)(=O)c3ccc(C(F)(F)F)cc3)c2n1` [D5, 4-Trifluoromethyl-N-(2-methylquinolin-8-yl)benzenesulfonamide], in assay [1], the inhibition in vivo at 50 mg/kg is 21 to 30%. Further, the EC50 in assay [2] was under 10 µM. Moreover, the viability at 20 µM in assay [3] was over 50%. Moreover, the “SERCA Vmax Increase” value in assay [4] was “A (A represents an increase in SERCA Vmax greater than 50%)”. In addition, the viability at 7.5 µM in assay [5] lay in the range of 10 to 50%.

Consider `Cc1ccc2cccc(NS(=O)(=O)c3ccc(C#N)cc3)c2n1` [D6, 4-Cyano-N-(2-methylquinolin-8-yl)benzenesulfonamide], for which the inhibition in vivo at 50 mg/kg in assay [1] was 21 to 30%. Moreover, the EC50 in assay [2] was 10 to 20 µM. Moreover, the viability at 20 µM in assay [3] fell in the range of 10 to 50%. The “SERCA Vmax Increase” value in assay [4] is listed as “A (A represents an increase in SERCA Vmax greater than 50%)”. For the same molecule, the viability at 7.5 µM in assay [5] is 1 to 10%.

Regarding `Cc1ccc2cccc(NS(=O)(=O)c3ccc(N(C)C)cc3)c2n1` [D7, 4-Dimethylamino-N-(2-methylquinolin-8-yl)benzenesulfonamide], the inhibition in vivo at 50 mg/kg in assay [1] fell in the range of 21 to 30%. This molecule registered an EC50 in assay [2] of 10 to 20 µM. The viability at 20 µM in assay [3] lay within 10 to 50%. Besides, in assay [4], the “SERCA Vmax Increase” value is “B (B represents a value greater than 10% and less than or equal to 50%)”. Moreover, in assay [5], the viability at 7.5 µM was 1 to 10%.

Turning to `Cc1ccc2cccc(NS(=O)(=O)c3cc(Br)cs3)c2n1` [D8, 4-Bromo-N-(2-methylquinolin-8-yl)thiophene-2-sulfonamide], in assay [1], the inhibition in vivo at 50 mg/kg is over 30%. In assay [2], this molecule registered a concentration giving a half-maximal response (EC50) of 10 to 20 µM. In addition, in assay [3], the viability at 20 µM is over 50%. Besides, the “SERCA Vmax Increase” value in assay [4] is “B (B represents a value greater than 10% and less than or equal to 50%)”. Also, the viability at 7.5 µM in assay [5] is 10 to 50%.

For the molecule `Cc1ccc2cccc(NS(=O)(=O)c3ccc(C)o3)c2n1` [D9, 5-Methyl-N-(2-methylquinolin-8-yl)furan-2-sulfonamide], the inhibition in vivo at 50 mg/kg in assay [1] fell in the range of 10 to 20%. The same molecule displayed a concentration giving a half-maximal response (EC50) in assay [2] of 10 to 20 µM. For the same molecule, in assay [3], the viability at 20 µM fell in the range of 10 to 50%. Besides, the “SERCA Vmax Increase” value in assay [4] is “B (B represents a value greater than 10% and less than or equal to 50%)”. For the same molecule, the viability at 7.5 µM in assay [5] was in the range of 10 to 50%.

In the case of `Cc1ccc2cccc(NS(=O)(=O)c3ccc(C(C)(C)C)cc3)c2n1` [D10, 4-(tent-Butyl)-N-(2-methylquinolin-8-yl)benzenesulfonamide], the inhibition in vivo at 50 mg/kg in assay [1] was 21 to 30%. In assay [2], this molecule registered a concentration for a half-maximal effect (EC50) of 10 to 20 µM. Besides, the viability at 20 µM in assay [3] is 10 to 50%. The “SERCA Vmax Increase” value in assay [4] is recorded as “A (A represents an increase in SERCA Vmax greater than 50%)”. Besides, in assay [5], the viability at 7.5 µM lay in the range of 10 to 50%.

These data come from patent publication US20190337899A1, “QUINOLINE SULFONAMIDES USEFUL TO TREAT DISEASE” (priority 2015, published 2019).
